# Results reported in ChEMBL document CHEMBL1153866, “Design, synthesis and evaluation of galanthamine derivatives as acetylcholinesterase inhibitors” (Eur J Med Chem, 2009).
# Columns and labels:
# Butyrylcholinesterase = Butyrylcholinesterase (Rattus norvegicus, UniProt Q9JKC1); test: Inhibition of BChE from rat serum by Ellmans method; format: cell-free
# Acetylcholinesterase = molecular target: T1, Acetylcholinesterase (Rattus norvegicus, UniProt P37136); test: Inhibition of AChE from rat cortex homogenate by Ellmans method
# T1 sequence (P37136 whole entry): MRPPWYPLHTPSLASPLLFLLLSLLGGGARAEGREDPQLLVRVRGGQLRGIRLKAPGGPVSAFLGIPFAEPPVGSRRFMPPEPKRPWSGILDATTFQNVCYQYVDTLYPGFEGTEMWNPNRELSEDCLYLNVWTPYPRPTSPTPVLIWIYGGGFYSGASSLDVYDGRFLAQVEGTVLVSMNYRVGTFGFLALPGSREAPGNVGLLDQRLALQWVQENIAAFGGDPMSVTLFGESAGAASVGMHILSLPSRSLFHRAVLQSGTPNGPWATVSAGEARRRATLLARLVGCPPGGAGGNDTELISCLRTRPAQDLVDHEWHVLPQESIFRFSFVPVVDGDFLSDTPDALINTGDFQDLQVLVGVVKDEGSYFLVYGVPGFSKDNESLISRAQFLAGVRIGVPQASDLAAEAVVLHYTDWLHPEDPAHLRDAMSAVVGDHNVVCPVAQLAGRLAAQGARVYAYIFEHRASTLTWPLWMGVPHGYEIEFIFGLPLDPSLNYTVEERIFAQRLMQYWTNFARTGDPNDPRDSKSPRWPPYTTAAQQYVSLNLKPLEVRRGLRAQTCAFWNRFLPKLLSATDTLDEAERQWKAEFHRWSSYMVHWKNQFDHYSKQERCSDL
# Chain of Butyrylcholinesterase (Q9JKC1 whole entry): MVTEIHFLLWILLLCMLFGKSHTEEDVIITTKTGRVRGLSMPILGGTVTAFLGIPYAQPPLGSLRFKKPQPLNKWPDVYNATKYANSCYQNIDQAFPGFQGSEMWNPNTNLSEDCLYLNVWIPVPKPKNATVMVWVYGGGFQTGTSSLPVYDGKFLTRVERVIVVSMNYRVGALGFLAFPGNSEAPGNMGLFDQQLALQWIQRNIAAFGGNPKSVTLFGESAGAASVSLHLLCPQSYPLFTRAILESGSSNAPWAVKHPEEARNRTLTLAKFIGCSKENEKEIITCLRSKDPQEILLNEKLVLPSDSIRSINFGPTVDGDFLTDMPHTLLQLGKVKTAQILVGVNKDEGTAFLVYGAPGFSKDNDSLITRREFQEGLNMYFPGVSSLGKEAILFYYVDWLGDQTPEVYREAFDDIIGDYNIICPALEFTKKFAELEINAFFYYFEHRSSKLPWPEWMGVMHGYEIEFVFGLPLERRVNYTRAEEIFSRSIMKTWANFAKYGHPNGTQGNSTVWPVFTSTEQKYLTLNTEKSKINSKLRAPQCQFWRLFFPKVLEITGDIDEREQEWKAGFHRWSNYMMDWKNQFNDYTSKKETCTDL
Compound,IC50 (Butyrylcholinesterase) [µM],IC50 (Acetylcholinesterase) [µM]
COc1ccc2c3c1O[C@H]1C[C@@H](O)C=C[C@@]31CCN(CCCCCCOc1cccc(C(C)N3CCOCC3)c1)C2 (some centres not stated),5.8,0.154
COc1ccc2c3c1O[C@H]1C[C@@H](O)C=C[C@@]31CCN(CCCCCCCCCOc1ccc(CN3CCCCC3)cc1)C2,64,0.0881
COc1ccc2c3c1O[C@H]1C[C@@H](O)C=C[C@@]31CCN(CCCCCCCCCCCCOc1ccc(CN3CCCCC3)cc1)C2,1.2,0.0581
COc1ccc2c3c1O[C@H]1C[C@@H](O)C=C[C@@]31CCN(CCCCCCOc1ccc(CN3CCCCC3)cc1)C2,33,0.00562
COc1ccc2c3c1O[C@H]1C[C@@H](O)C=C[C@@]31CCN(CCCCOc1cccc(C(C)N3CCOCC3)c1)C2 (some centres not stated),7.1,0.0941
COc1ccc2c3c1O[C@H]1C[C@@H](O)C=C[C@@]31CCN(CCCCOc1ccc(C(=O)N3CCCC3)cc1)C2,5.6,0.0538
COc1ccc2c3c1O[C@H]1C[C@@H](O)C=C[C@@]31CCN(CCCCOC1CCN(Cc3ccccc3)CC1)C2,4.3,0.306
COc1ccc2c3c1O[C@H]1C[C@@H](O)C=C[C@@]31CCN(CCCCCOc1ccc(CN3CCCCC3)cc1)C2,29,–
COc1ccc2c3c1O[C@H]1C[C@@H](O)C=C[C@@]31CCN(CCCCOc1ccc(CN3CCCCC3)cc1)C2,28,0.0124
CCN(CC)Cc1ccc(OCCCCCCN2CC[C@@]34C=C[C@H](O)C[C@@H]3Oc3c(OC)ccc(c34)C2)cc1,41,0.00886
COc1ccc2c3c1O[C@H]1C[C@@H](O)C=C[C@@]31CCN(CCCCCCCCOc1ccc(CN3CCCCC3)cc1)C2,53,0.0347
COc1ccc2c3c1O[C@H]1C[C@@H](O)C=C[C@@]31CCN(CCCOc1ccc(CN3CCCCC3)cc1)C2,24,0.018
COc1ccc2c3c1O[C@H]1C[C@@H](O)C=C[C@@]31CCN(CCCCCCCCCCOc1ccc(CN3CCCCC3)cc1)C2,93,0.0612
COc1ccc2c3c1O[C@H]1C[C@@H](O)C=C[C@@]31CCN(CCCCCCOc1ccc(C(=O)N3CCCC3)cc1)C2,9.4,0.122
COc1ccc2c3c1O[C@H]1C[C@@H](O)C=C[C@@]31CCN(CCCCCCOC1CCN(Cc3ccccc3)CC1)C2,5.5,0.222
COc1ccc2c3c1O[C@H]1C[C@@H](O)C=C[C@@]31CCN(CCCCCCOc1ccc(CN3CCOCC3)cc1)C2,3.9,0.113
CCN(CC)Cc1ccc(OCCCCN2CC[C@@]34C=C[C@H](O)C[C@@H]3Oc3c(OC)ccc(c34)C2)cc1,34,0.0146
COc1ccc2c3c1O[C@H]1C[C@@H](O)C=C[C@@]31CCN(CCCCOc1ccc(CN3CCOCC3)cc1)C2,3.3,0.0991
COc1ccc2c3c1O[C@H]1C[C@@H](O)C=C[C@@]31CCN(CCOc1ccc(CN3CCCCC3)cc1)C2,21,0.0245
